{"source": "patent US20070066996A1", "about": "“Modafinil-based neurorehabilitation of impaired neurological function associated with brian injury” (priority 2003, published 2007)", "key": {"[1]": {"test_system": "individuals who have sustained a brain injury", "details": "individuals with brain injury; L-dopa at high doses; co-filed international application; cited from earlier work"}, "[2]": {"test_system": "dopamine transporter knock-out mice", "details": "Wisor et al. 2001; cited from earlier work"}, "[3]": {"test_system": "chronic post-TBI patients with motor deficits", "test": "Open-label study: overall functional motor performance and reported adverse effects", "assay_type": "in vivo, human", "details": "two patients", "protocol": "A clinical study was performed to evaluate the effect of modafinil on the functional outcome of the paretic arm of patients recovering from a brain injury.\n(§1) Two chronic post-TBI patients with motor deficits were treated for two consecutive weeks with modafinil (a single 200 mg/day dose, orally). Additionally, three hours after administration of the drug, these patients received one hour of occupational therapy in the morning and one hour of motor training at home in the afternoon. Primary outcomes were the pinch strength measured with a mechanic dynamometer, the number of blocks that the patient can pass in one minute in a box and block test, and the time required to complete a grooved pegboard test as described below.\n(§2) Patients were assessed at baseline, treated for two weeks, assessed at the end of the treatment, and assessed again 90 days after commencement of treatment.\n(§3) Patients were chronic post-traumatic brain injured individuals that were treated for two consecutive weeks with a 200 mg/day, single dose, of modafinil from Monday through Friday. Additionally, the patients received one hour of occupational therapy three hours after the oral intake of the drug and one hour of motor training at home. Primary outcomes were the pinch strength measured with a mechanic dynamometer, the number of blocks that the patient could pass in one minute in a box and block test, and the time required to complete a grooved pegboard at baseline. Primary outcomes were assessed at two weeks and 90 days from commencement of treatment."}, "extracellular dopamine": {"test_system": "extracellular dopamine", "details": "Wisor et al., J. Neuroscience 2001; cited from earlier work"}, "[4]": {"test_system": "chronic post-TBI patients with motor deficits", "test": "Pinch strength (mechanic dynamometer), open-label modafinil study", "assay_type": "in vivo, human", "protocol": "as §1\nThe Pinch Force Dynamometer is a hand-held device capable of measuring instantaneous strength of the thumb and opposing finger or groupings of fingers as a function of time. The principle components are a pinch force transducer, instrumentation amplifier, and associated cables. Dynamic voltage representing instantaneous finger(s) pinch strength as a function of time is taken from the output of the instrumentation amplifier and sent to a laptop computer or to a data acquisition system for data manipulation, display, correlation with other data sources, and/or storage.\nas §2, §3"}, "[5]": {"test_system": "chronic post-TBI patients with motor deficits", "test": "Box and Block Test of manual dexterity, open-label modafinil study", "assay_type": "in vivo, human", "protocol": "as §1\nThe “Box and Block Test” is a standardized test of manual dexterity, which provides a baseline for upper extremity manual dexterity and gross motor coordination. The test is quick and simple to administer and uses […] (1″) colored wooden blocks.\nas §2, §3"}}, "note": "“Also recorded” adds a separate entry of the source. Marks after values point to notes of the source that are not given here."}
{"smiles": "CN1CCc2cccc3c2[C@H]1Cc1ccc(O)c(O)c1-3", "note": "[apomorphine]", "values": [{"measurement": "treating impaired neurological function, including emergence from coma and other altered consciousness states", "setting": "[1]", "value": "particularly effective"}]}
{"smiles": "NC(=O)C[S+]([O-])C(c1ccccc1)c1ccccc1", "note": "(stereo not drawn) [modafinil, 2-[(diphenylmethyl)sulfinyl]acetamide]", "values": [{"measurement": "response to the action of modafinil", "setting": "[2]", "value": "unresponsive"}, {"measurement": "persistence of the improvements", "setting": "[3]; 90 days after commencement of treatment", "value": "sustained at 90 days"}, {"measurement": "adverse effect reported with the medication", "setting": "[3]; modafinil 200 mg/day orally, two weeks", "value": "Neither of the patients reported any adverse effect; also recorded: did not report any adverse effect"}, {"measurement": "functional motor performance in the intact hand", "setting": "[3]; two-week course of modafinil", "value": "slight improvement"}, {"measurement": "functional motor performance in the paretic hands", "setting": "[3]; two-week course of modafinil 200 mg/day orally", "value": "improved functional motor performance"}, {"measurement": "extracellular dopamine", "setting": "extracellular dopamine", "value": "increased extracellular dopamine"}, {"measurement": "Pinch Strength", "setting": "[4]; Patient 1, affected hand, 14 days, modafinil 200 mg/day orally for two weeks plus therapy, baseline 14.3", "value": 16.8, "unit": "Pounds"}, {"measurement": "Pinch Strength", "setting": "[4]; Patient 1, affected hand, 90 days from commencement, baseline 14.3", "value": 17.6, "unit": "Pounds"}, {"measurement": "Pinch Strength", "setting": "[4]; Patient 1, intact hand, 14 days, baseline 13.5", "value": 14.6, "unit": "Pounds"}, {"measurement": "Pinch Strength", "setting": "[4]; Patient 1, intact hand, 90 days, baseline 13.5", "value": 15, "unit": "Pounds"}, {"measurement": "Pinch Strength", "setting": "[4]; Patient 2, affected hand, 14 days, baseline 17", "value": 21.3, "unit": "Pounds"}, {"measurement": "Pinch Strength", "setting": "[4]; Patient 2, affected hand, 90 days, baseline 17", "value": 19.3, "unit": "Pounds"}, {"measurement": "Pinch Strength", "setting": "[4]; Patient 2, intact hand, 14 days, baseline 23", "value": 24, "unit": "Pounds"}, {"measurement": "Pinch Strength", "setting": "[4]; Patient 2, intact hand, 90 days, baseline 23", "value": 23.6, "unit": "Pounds"}, {"measurement": "Box and Block", "setting": "[5]; Patient 1, affected hand, 14 days, baseline 34", "value": "46 # blocks passed in 1 min"}, {"measurement": "Box and Block", "setting": "[5]; Patient 1, affected hand, 90 days, baseline 34", "value": "46 # blocks passed in 1 min"}, {"measurement": "Box and Block", "setting": "[5]; Patient 1, intact hand, 14 days, baseline 54", "value": "59 # blocks passed in 1 min"}, {"measurement": "Box and Block", "setting": "[5]; Patient 1, intact hand, 90 days, baseline 54", "value": "55 # blocks passed in 1 min"}, {"measurement": "Box and Block", "setting": "[5]; Patient 2, affected hand, 14 days, baseline 30", "value": "40 # blocks passed in 1 min"}, {"measurement": "Box and Block", "setting": "[5]; Patient 2, affected hand, 90 days, baseline 30", "value": "40 # blocks passed in 1 min"}, {"measurement": "Box and Block", "setting": "[5]; Patient 2, intact hand, 14 days, baseline 54 (table) / 62", "value": "65 # blocks passed in 1 min"}, {"measurement": "Box and Block", "setting": "[5]; Patient 2, intact hand, 90 days, baseline 54 (table) / 62", "value": "76 # blocks passed in 1 min"}]}
{"smiles": "N[C@@H](Cc1ccc(O)c(O)c1)C(=O)O", "note": "[L-dopa]", "values": [{"measurement": "treating impaired neurological function, including emergence from coma and other altered consciousness states", "setting": "[1]", "value": "particularly effective"}]}
